Results from article PMC6544338, “Comparative biophysical characterization: A screening tool for acetylcholinesterase inhibitors” (PLoS ONE, 2019).
Counter-ions that a name gives are not always drawn. Like-named read-outs stand apart in the source and are kept apart here.

Experiments:
immobilized AChE [1] = biological target: T1, immobilized AChE (Electrophorus electricus, UniProt O42275); assay: biochemical; type: binding; settings: for Kd: read-out: Molecule 2 KD
T1 construct: purchased Sigma (St. Louis, MO, USA)
T1 sequence (O42275 24-633): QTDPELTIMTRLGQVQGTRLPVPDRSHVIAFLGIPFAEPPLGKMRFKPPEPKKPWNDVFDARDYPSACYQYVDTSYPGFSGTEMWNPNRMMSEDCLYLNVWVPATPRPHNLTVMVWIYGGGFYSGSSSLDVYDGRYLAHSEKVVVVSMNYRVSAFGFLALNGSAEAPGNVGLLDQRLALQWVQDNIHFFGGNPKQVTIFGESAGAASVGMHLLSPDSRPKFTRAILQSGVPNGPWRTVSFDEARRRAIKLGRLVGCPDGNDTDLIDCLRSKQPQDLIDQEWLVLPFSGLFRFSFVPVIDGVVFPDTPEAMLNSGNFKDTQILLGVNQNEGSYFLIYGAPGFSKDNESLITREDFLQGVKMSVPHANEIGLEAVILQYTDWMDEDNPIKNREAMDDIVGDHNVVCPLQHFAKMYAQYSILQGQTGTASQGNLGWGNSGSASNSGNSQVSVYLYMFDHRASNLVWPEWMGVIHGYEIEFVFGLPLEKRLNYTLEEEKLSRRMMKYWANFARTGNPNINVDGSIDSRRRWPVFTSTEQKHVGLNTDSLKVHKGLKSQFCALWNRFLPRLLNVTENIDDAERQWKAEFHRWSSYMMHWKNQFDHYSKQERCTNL
Description: (§1) The protocol was followed with some modifications for enzyme immobilization, scouting and screening. SPR interactions were performed using a Biacore X100 optical biosensor (GE Healthcare Life Sciences, Bangalore, India) at 25°C. SPR analysis was carried out in PBS (200 mM, pH 7.7) from the analyte stock solutions, working solutions were diluted before passing on to the sensor surface. Data collection was done with the help of Biacore control software ver 2.0.2 Sets of experiments were carried out by monitoring change in the refractive index as a function of time under constant flow conditions. The relative amount of inhibitor bound to the AChE was determined by measuring the net increase in the refractive index over time compared to buffer as a control. During each run, there is an inline subtraction of the reference surface. Change is reported regarding response units (RU). The surface was washed with 5 cycles of running buffer (PBS) before next analytes.
(§2) As per pH scouting studies, AChE enzyme (100μg) was dissolved in 100 mM sodium acetate buffer pH 4.5 and was immobilized to the CM5 sensor chip by using the amine coupling method. The flow rate was kept constant during immobilization at 10 μlmin^-1, the surface of flow cell was activated by 1:1 mixture of 100 mM EDC and 100 mM NHS (both dissolved in water) for 7 min. AChE was injected for 7 min, and residual activated carboxymethyl groups were blocked on the sensor surface by 7 min injection of 1M ethanolamine, pH 8.5. In this particular study, flow cell 1 was blank immobilized (without protein) and used as a reference. Inline and double referencing was done for the buffer RU compensation.
(§3) Here the model describes this competitive situation and returns two sets of rate constants, one for each reaction taking into consideration two different analytes. The same buffer was used as running buffer. The constant flow rate was maintained throughout the kinetics (45 μlmin^-1), contact time and dissociation time was kept at 120 second (s). 10 mM glycine pH 3.0 for the time period of 30 s was used for regeneration. The experiments were carried at different concentrations of inhibitors.
(§4) The analysis of data was carried out with X100 evaluation software ver 2.0.2 and fitted to two state fit for individual molecules and for competitive experiments a heterogeneous analyte binding model.
Likewise, competitive experiments between different pairs was run by mixing 1:1 ratio of molecules and was fit to heterogeneous analyte model were studied. These experiments are helpful for determining the kinetics of a small molecule analyte in competition with other. Response contributions from both analytes are taken into account by considering molecular weight and concentrations of analytes. For competition binding experiments, pairing was done based on substrate-inhibitor and inhibitor-inhibitor interactions. […] Finally, naturally occurring crocin was also tested due to reports in the literature as a brain tonic for the Alzheimer's.

AChE [2] = biological target: T2, AChE (Electrophorus electricus, UniProt O42275); assay: Fluorescence spectral studies of AChE incubated with molecules; settings: excitation 365 nm, control emission maxima […] nm, molecules at IC50 concentration, 10 min
T2 construct: purchased Sigma (St. Louis, MO, USA)
T2 sequence (O42275 24-633): as above
Description: The fluorescence intensities were recorded using 0.5 mgml^-1 protein concentration with an excitation wavelength of 365 nm and an emission wavelength of 400–700 nm with slit widths of 20 nm using MY14410002 fluorescence spectrophotometer (Agilent Technologies, USA) at 25°C. Protein solutions of 0.5 mgml^-1 were prepared in 10 mM PBS at pH 7.7. Scans were performed at room temperature using a 1 cm path length quartz cuvette with 1 s differential integration time at a scan rate of 600 nm min^-1. […] The subsequent changes in fluorescence were measured at this wavelength.
Fig 21 a) Intrinsic fluorescence spectra of the AChE incubated with molecules. […] Scans were performed at 37°C using a 1 cm path length quartz cuvette with 1 s differential integration time at a scan rate of 600 nm min^-1. The excitation wavelength was 365 nm and emission wavelength was in the range of 400–700 nm. b) Intrinsic fluorescence spectra of the AChE incubated with molecules. […] Scans were performed at 37° C using a 1 cm path length quartz cuvette with 1 s differential integration time at a scan rate of 600 nm min^-1. The excitation wavelength was 365 nm and the emission wavelength was in the range of 400–700 nm.

immobilized AChE [3] = biological target: T1, immobilized AChE; assay: biochemical; type: binding; settings: for Kd / Ka1 / Kd1: 25°C
Description: as §1, §2, §3, §4

AChE [4] = biological target: T2, AChE; assay: Far-UV circular dichroism of AChE with small molecules (secondary structure composition); settings: for change in secondary structure of AChE compared to control enzyme: CD, far-UV; for Turns of AChE in presence of the molecule / α helix of AChE in presence of the molecule / Random of AChE in presence of the molecule / β sheets of AChE in presence of the molecule: single molecule; for Turns of AChE in presence of the molecule: AChE alone 0; for α helix of AChE in presence of the molecule: AChE alone 3.6±0.012; for Random of AChE in presence of the molecule: AChE alone 44.2±0.46; for β sheets of AChE in presence of the molecule: AChE alone 52.3±0.6
Description: Protein solutions 0.5 milligram per milliliter (mgml^-1) was prepared in 10 mM PBS at pH 7.7. Scans were performed at room temperature using 0.1 cm path length quartz cuvette with 8 s differential integration time at a scan rate of 100 nano meter per minute (nm min^-1). The CD spectrum of AChE enzyme individually and with different small molecules, also in combination was recorded. All spectra resulted from averaging three scans were corrected from the buffer blank. Results were expressed as molar ellipticity (°cm^2 dmol^-1) based on a mean amino acid residue weight (MRW) 110 Da for AChE. The molar ellipticity was determined as [θ obs] = {100 × (MRW) × θobs/cl}, where θ is the observed ellipticity in degrees at a given wavelength, c is the protein concentration in mgml^-1, and l is the path length in cm.
The relative percentages of the secondary structure elements were estimated in triplicates using Manager Suite software.

[5] = biological target: T3, acetylcholinesterase from Electrophorus electricus (Electric eel) (Electrophorus electricus, UniProt O42275); assay: Inhibition assay for acetylcholinesterase activity (modified Ellman, ATCI/DTNB, 412 nm); type: biochemical
T3 construct: purchased Sigma (St. Louis, MO, USA)
T3 sequence (O42275 24-633): as above
Description: The assay was performed with some modifications of Ellman et al (1961). […] The hydrolysis was monitored by the formation of yellow color (5-thio-2-nitrobenzoate anion) and the absorbance was measured at 412 nm by using spectrophotometer (UV-1800, Shimadzu, Japan).
The inhibitory activity assay was carried out with slight modifications. […] The inhibitory percentage of AChE was calculated as follows:
%inhibition = 100[A − B] − [C − D]/[A − B]
A is the OD without test substance, B is the OD without test substance and AChE, C is the OD with the test substance, D is the OD at 412 nm with the test substance and without AChE.
The relative percentage inhibition were estimated in triplicates and values were expressed as mean ± SEM (n = 3).

[6] = pair crocin (molecule 1) and ATCI (molecule 2), 1:1
[7] = pair tannic acid (molecule 1) and ATCI (molecule 2), 1:1
[8] = affinity fit, read-out: KD Affinity
[9] = two-state model, read-out: KD Kinetics

Structure (SMILES) | change in fluorescence emission of AChE compared to control enzyme (AChE [2]) | Ka2 (immobilized AChE [3]) | Kd (immobilized AChE [3]; [8]) | Ka1 (immobilized AChE [3]; two-state model) | Kd1 (immobilized AChE [3]; two-state model) | Kd (immobilized AChE [3]; [9]) | change in secondary structure of AChE compared to control enzyme (AChE [4]) | Turns of AChE in presence of the molecule (AChE [4]) | α helix of AChE in presence of the molecule (AChE [4]) | Random of AChE in presence of the molecule (AChE [4]) | β sheets of AChE in presence of the molecule (AChE [4]) | IC50 [5] | Kd2 (immobilized AChE [3]) | further results
CC(=O)SCC[N+](C)(C)C.[I-] [ATCI, acetylthiocholine iodide, reference compound] | no change | 12440 ± 9.6e-05 s⁻¹ | 2510 µM | 76590 ± 12000 M⁻¹ s⁻¹ | 0.4167 ± 0.13 s⁻¹ | 2.23 µM | increase in α-helix and a decline in β-sheets | 0% | 5.9±0.035% | 42.8±0.39% | 51.3±0.70% | – | – | Molecule 2 ka2 (immobilized AChE [1]): 92910 ± 43000 M⁻¹ s⁻¹; Molecule 2 ka2 (immobilized AChE [1]; [6]): 139500 ± 19000 M⁻¹ s⁻¹; Molecule 2 kd2 (immobilized AChE [1]; [6]): 0.06452 ± 0.0034 s⁻¹; Molecule 2 ka2 (immobilized AChE [1]; [7]): 1.529e+06 ± 3.4e+06 M⁻¹ s⁻¹; Kd (immobilized AChE [1]; [7]): 0.00016 µM; Kd (immobilized AChE [1]): 0.00989 µM
Cn1c(=O)c2c(ncn2C)n(C)c1=O [Caffeine, caffeine, reference compound] | – | – | – | – | – | – | – | – | – | – | – | 380 ± 15 µM | – | Kd (immobilized AChE [3]; KD Affinity, affinity fit): 7700 µM; Kd (immobilized AChE [3]; KD Kinetics, two-state model): 17.4 µM
C[N+](C)(C)CCOC(N)=O [Carbachol, carbachol, reference compound] | no change | 0.001509±2.6×10^−4 1/s | 1150 µM | 101000 ± 9700 M⁻¹ s⁻¹ | 0.05155 ± 0.0041 s⁻¹ | 0.236 µM | increase in α-helix and a decline in β-sheets | 2.6±0.016% | 4.0±0.02% | 42.4±0.38% | 51.0±0.69% | 210 ± 15 µM | 0.001298±1.1×10^−4 1/s | –
O.Oc1cc(O)c2c(c1)O[C@H](c1ccc(O)c(O)c1)[C@@H](O)C2 [Catechin hydrate, catechin hydrate] | redshift | 0.0158±7.1×10^−4 1/s | 738 µM | 76.33 ± 3.4 M⁻¹ s⁻¹ | 0.06336 ± 0.0042 s⁻¹ | 173 µM | – | 0% | 10±0.06% | 41±0.29% | 49±0.67% | – | 0.004173±1.1×10^−4 1/s | IC50 ([5]; […] ATCI, PBS 200 mM pH 7.7, 37°C, mean ± SEM (n = 3), read-out: IC50): 90 ± 1 µM
O[C@H]1[C@H]2c3cc4c(cc3CN3CCC(=C[C@@H]1O)[C@H]23)OCO4 [Lycorine hydrochloride, lycorine hydrochloride] | increase in the intensity at 415 nm | – | – | 131.5 ± 6.3 M⁻¹ s⁻¹ | 0.3564 ± 0.011 s⁻¹ | – | increase of α-helix | 0% | 7.2±0.045% | 41.6±0.34% | 51.2±0.72% | – | 0.02658 ± 0.0061 s⁻¹ | –
O=c1c(O)c(-c2ccc(O)c(O)c2)oc2cc(O)cc(O)c12 [Quercetin, quercetin] | redshift | 0.006822±3.4×10^−4 1/s | – | 117.6 ± 4.3 M⁻¹ s⁻¹ | 0.05923 ± 0.0028 s⁻¹ | – | reduction in α-helix with an increase in β-sheets | 1.0±0.006% | 3.1±0.010% | 42.8±0.39% | 53.2±0.75% | – | 0.004964±2.1×10^−4 1/s | –
